The target in test [1] is T1, human CYP11B1 (Homo sapiens, UniProt P15538).
T1 construct: expressed in transfected cells
T1 sequence (P15538 25-503): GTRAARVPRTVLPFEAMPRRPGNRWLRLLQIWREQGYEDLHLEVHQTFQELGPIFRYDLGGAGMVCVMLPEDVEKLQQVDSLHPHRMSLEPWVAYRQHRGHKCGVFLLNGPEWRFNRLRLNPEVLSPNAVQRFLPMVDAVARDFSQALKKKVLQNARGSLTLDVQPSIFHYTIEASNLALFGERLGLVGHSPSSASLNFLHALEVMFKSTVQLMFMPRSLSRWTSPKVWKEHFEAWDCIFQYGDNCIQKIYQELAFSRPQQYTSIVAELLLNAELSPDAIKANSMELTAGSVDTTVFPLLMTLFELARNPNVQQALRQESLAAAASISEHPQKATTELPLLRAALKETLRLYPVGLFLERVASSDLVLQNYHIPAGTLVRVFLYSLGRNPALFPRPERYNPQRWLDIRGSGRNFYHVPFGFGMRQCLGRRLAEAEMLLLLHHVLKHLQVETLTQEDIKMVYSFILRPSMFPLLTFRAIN
As to the kind of experiment: G-402 cellular enzyme assay, human CYP11B1 (cortisol release, HTRF). The class given is cell-based. To be noted: G-402 cells, 1 μM Deoxycortisol. The procedure, abridged:
(§1)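 Cellular format in stably transfected G-402 cells over 16 h. HTRF quantified aldosterone (CYP11B2, 1 μM deoxycorticosterone substrate) or cortisol (CYP11B1, 1 μM deoxycortisol substrate); EC50 obtained by fitting a 4-parameter sigmoid to dose–response data.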
On the technique in general: Time-resolved FRET reads energy transfer from a long-lived donor to a nearby acceptor.

The target of test [2] is T2, human CYP11B2 (Homo sapiens, UniProt P19099).
T2 construct: expressed in transfected cells
T2 sequence (P19099 25-503): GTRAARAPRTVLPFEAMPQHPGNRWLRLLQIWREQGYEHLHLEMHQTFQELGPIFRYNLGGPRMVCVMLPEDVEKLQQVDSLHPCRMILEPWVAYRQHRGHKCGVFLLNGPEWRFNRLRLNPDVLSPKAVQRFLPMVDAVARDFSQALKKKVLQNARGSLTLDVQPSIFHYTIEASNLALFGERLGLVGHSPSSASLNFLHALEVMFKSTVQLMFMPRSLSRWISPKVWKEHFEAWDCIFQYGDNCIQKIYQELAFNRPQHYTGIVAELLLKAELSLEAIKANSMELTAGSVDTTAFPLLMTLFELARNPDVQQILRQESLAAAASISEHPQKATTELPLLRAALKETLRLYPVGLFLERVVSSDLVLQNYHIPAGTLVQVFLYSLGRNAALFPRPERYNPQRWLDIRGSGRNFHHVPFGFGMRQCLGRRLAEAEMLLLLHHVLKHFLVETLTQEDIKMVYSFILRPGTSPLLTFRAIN
As to the kind of experiment: G-402 cellular enzyme assay, human CYP11B2 (aldosterone release, HTRF). The class given is cell-based. To be noted: G-402 cells, 1 μM Deoxycorticosterone. The procedure, abridged: as §1

Here are results for 27 compounds from patent publication US9133158B2, “Bicyclic dihydroisoquinoline-1-one derivatives” (Hoffmann-La Roche Inc., priority 2011, dated 2015).

The term EC50 denotes the concentration at which the effect is half-maximal. A low value points to greater potency.

For `CN1CCCC1CCOCc1cncc(N2CCc3cc(Cl)ccc3C2=O)c1` (stereo not drawn) [Example 196, 6-Chloro-2-{5-[2-(1-methyl-pyrrolidin-2-yl)-ethoxymethyl]-pyridin-3-yl}-3,4-dihydro-2H-isoquinolin-1-one], the concentration giving a half-maximal response (EC50) turned out to be 1030 nM in test [1] and 178 nM in test [2].
The corresponding values for `COC[C@@H]1CCCN1Cc1cncc(N2Cc3cc(Cl)ccc3C2=O)c1` [Example 113, 5-Chloro-2-[5-((S)-2-methoxymethyl-pyrrolidin-1-ylmethyl)-pyridin-3-yl]-2,3-dihydro-isoindol-1-one] are 1360 nM and 342 nM.
The like results for `CC1(C)c2cc(C#N)ccc2C(=O)N1c1cncc(CNS(C)(=O)=O)c1` [Example 402, N-[5-(6-Cyano-1,1-dimethyl-3-oxo-1,3-dihydro-isoindol-2-yl)-pyridin-3-ylmethyl]-methane-sulfonamide] were, in that order, 2210 nM and 34.2 nM.
The corresponding values for `O=C1c2ccc(Cl)cc2CCN1c1cncc(-c2cn[nH]c2)c1` [Example 229, 6-Chloro-2-[5-(1H-pyrazol-4-yl)-pyridin-3-yl]-3,4-dihydro-2H-isoquinolin-1-one] are 745 nM and 204 nM.
Turning to `O=C1c2ccc(Cl)cc2CCN1c1cncc(C(O)C2CC2)c1` (stereo not drawn) [Example 20, 6-Chloro-2-[5-(cyclopropyl-hydroxy-methyl)-pyridin-3-yl]-3,4-dihydro-2H-isoquinolin-1-one], the results for the EC50 in test [1] and in test [2] were 1050 nM and 85.9 nM, respectively.
The like results for `CCC1c2ccc(Cl)cc2C(=O)N1c1cncc(CNS(C)(=O)=O)c1` (single isomer, unassigned) [Example 407, N-[5-((R or S)-5-Chloro-1-ethyl-3-oxo-1,3-dihydro-isoindol-2-yl)-pyridin-3-ylmethyl]-methane-sulfonamide] were, in that order, 20700 nM and 987 nM.
For `Cc1cncc(N2CCc3cc(Cl)ccc3C2=O)n1` [Example 38, 6-Chloro-2-(6-methyl-pyrazin-2-yl)-3,4-dihydro-2H-isoquinolin-1-one], the EC50 was 8390 nM in test [1] and 1070 nM in test [2].
The like results for `CC(O)(c1ccccc1)c1cncc(N2CCc3cc(Cl)ccc3C2=O)c1` (stereo not drawn) [Example 35, 6-Chloro-2-[5-(1-hydroxy-1-phenyl-ethyl)-pyridin-3-yl]-3,4-dihydro-2H-isoquinolin-1-one] were, in that order, 146 nM and 18.8 nM.
For the compound `O=C(NC1CC1)c1cncc(N2CCc3cc(Cl)ccc3C2=O)c1` [Example 44, 5-(6-Chloro-1-oxo-3,4-dihydro-1H-isoquinolin-2-yl)-N-cyclopropyl-nicotinamide], the results for the EC50 in test [1] and in test [2] were 16900 nM and 5930 nM, respectively.
`O=C1c2ccc(Cl)cc2CCN1c1cncc(-c2cc(F)cc(F)c2)c1` [Example 233, 6-Chloro-2-[5-(3,5-difluoro-phenyl)-pyridin-3-yl]-3,4-dihydro-2H-isoquinolin-1-one]: the EC50 in test [1] was 21600 nM; in test [2], 271 nM.
With `Cc1n[nH]c(C)c1-c1cncc(N2CCc3cc(Cl)ccc3C2=O)c1` [Example 79, 6-Chloro-2-[5-(3,5-dimethyl-1H-pyrazol-4-yl)-pyridin-3-yl]-3,4-dihydro-2H-isoquinolin-1-one], the EC50 in test [1] is 34 nM; in test [2], 5.1 nM.
As to `O=C1c2ccc(Cl)cc2CCN1c1cncc(COC2CCCC2)c1` [Example 197, 6-Chloro-2-(5-cyclopentyloxymethyl-pyridin-3-yl)-3,4-dihydro-2H-isoquinolin-1-one], the EC50 in test [1] was 555 nM; in test [2] it was 46.8 nM.
Take `CC(Nc1ncco1)c1cncc(N2CCc3cc(Cl)ccc3C2=O)c1` (stereo not drawn) [Example 272, 6-Chloro-2-{5-[1-(oxazol-2-ylamino)-ethyl]-pyridin-3-yl}-3,4-dihydro-2H-isoquinolin-1-one]: the EC50 in test [1] amounted to 210 nM; in test [2] it was 60.4 nM.
Consider `O=C1c2ccc(Cl)cc2CCN1c1cncc(-c2cccc(OC(F)(F)F)c2)c1` [Example 237, 6-Chloro-2-[5-(3-trifluoromethoxy-phenyl)-pyridin-3-yl]-3,4-dihydro-2H-isoquinolin-1-one], for which the EC50 was found to be 3610 nM in test [1] and 204 nM in test [2].
On to `CCC1c2ccc(Cl)cc2C(=O)N1c1cncc(CNS(C)(=O)=O)c1` (single isomer, unassigned) [Example 405, N-[5-((S or R)-5-Chloro-1-ethyl-3-oxo-1,3-dihydro-isoindol-2-yl)-pyridin-3-ylmethyl]-methane-sulfonamide], for which the EC50 is 35200 nM in test [1] and 546 nM in test [2].
The like results for `CNC(=O)COc1cncc(N2CCc3cc(Cl)ccc3C2=O)c1` [Example 254, 2-[5-(6-Chloro-1-oxo-3,4-dihydro-1H-isoquinolin-2-yl)-pyridin-3-yloxy]-N-methyl-acetamide] were, in that order, 32500 nM and 2130 nM.
As to `Cn1nccc1CNc1cncc(N2CCc3cc(Cl)ccc3C2=O)c1` [Example 226, 6-Chloro-2-{5-[(2-methyl-2H-pyrazol-3-ylmethyl)-amino]-pyridin-3-yl}-3,4-dihydro-2H-isoquinolin-1-one], the figures for the EC50 in test [1] and in test [2] were 3400 nM and 53.4 nM, respectively.
As to `O=C1c2ccc(Cl)cc2C2(CC2)N1c1cccnc1` [Example 296, 6′-Chloro-2′-(pyridin-3-yl)spiro[cyclopropane-1,1′-isoindol]-3′(2′H)-one], the EC50 in test [1] was 4500 nM; in test [2], 132 nM.
As to `CC[C@@H]1c2cc(Cl)ccc2C(=O)N1c1cncc2c1CC[C@H]2NS(C)(=O)=O` (single isomer, unassigned) [Example 369, N-[(R or S)-4-((R or S)-5-Chloro-3-ethyl-1-oxo-1,3-dihydro-isoindol-2-yl)-6,7-dihydro-5H-[2]pyrindin-7-yl]-methanesulfonamide], the EC50 in test [1] turned out to be 12400 nM; in test [2], 40.3 nM.
`CC[C@H]1c2cc(Cl)ccc2C(=O)N1c1cncc2c1CCC[C@@H]2NS(C)(=O)=O` (single isomer, unassigned) [Example 348, N-[(S or R)-4-((S or R)-5-Chloro-3-ethyl-1-oxo-1,3-dihydro-isoindol-2-yl)-5,6,7,8-tetrahydro-isoquinolin-8-yl]-methanesulfonamide]: the EC50 in test [1] came out at 36900 nM; in test [2], 2830 nM.
For `Cc1noc(C)c1Cc1cncc(N2CCc3cc(Cl)ccc3C2=O)c1` [Example 204, 6-Chloro-2-[5-(3,5-dimethyl-isoxazol-4-ylmethyl)-pyridin-3-yl]-3,4-dihydro-2H-isoquinolin-1-one], the EC50 turned out to be 900 nM in test [1] and 40.8 nM in test [2].
`O=C1c2ccc(Cl)cc2CCN1c1cncc(Br)c1` [Example 7, 2-(5-Bromo-pyridin-3-yl)-6-chloro-3,4-dihydro-2H-isoquinolin-1-one]: the figures for the EC50 in test [1] and in test [2] were 704 nM and 77.9 nM, respectively.
On to `CCOc1ccc2c(n1)C(C)(C)N(c1cncc(OC(F)F)c1)C2=O` [Example 303, 6-(5-Difluoromethoxy-pyridin-3-yl)-2-ethoxy-7,7-dimethyl-6,7-dihydro-pyrrolo[3,4-b]pyridin-5-one], for which the EC50 is 12600 nM in test [1] and 93.6 nM in test [2].
The like results for `COc1ccc2c(n1)C(C)(C)N(c1cncc(F)c1)C2=O` [Example 294, 6-(5-Fluoro-pyridin-3-yl)-2-methoxy-7,7-dimethyl-6,7-dihydro-pyrrolo[3,4-b] pyridin-5-one] were, in that order, 9850 nM and 204 nM.
Regarding `CC(=O)N1CC[C@H](Oc2cncc(N3C(=O)c4ccc(Cl)cc4C3(C)C)c2)C1` [Example 443, 2-[5-((S)-1-Acetyl-pyrrolidin-3-yloxy)-pyridin-3-yl]-5-chloro-3,3-dimethyl-2,3-dihydro-isoindol-1-one], the EC50 in test [1] was determined as 1170 nM; in test [2], 9 nM.
For `CC1c2cc(Cl)ccc2C(=O)N1c1cncc(F)c1` (stereo not drawn) [Example 123, 5-Chloro-2-(5-fluoro-pyridin-3-yl)-3-methyl-2,3-dihydro-isoindol-1-one], the EC50 in test [1] worked out at 7730 nM; in test [2], 122 nM.
In the case of `CCS(=O)(=O)N1CC[C@H](Oc2cncc(N3C(=O)c4ccc(Cl)cc4C3(C)C)c2)C1` [Example 448, 5-Chloro-2-[5-((S)-1-ethanesulfonyl-pyrrolidin-3-yloxy)-pyridin-3-yl]-3,3-dimethyl-2,3-dihydro-isoindol-1-one], the concentration for a half-maximal effect (EC50) in test [1] was found to be 1980 nM; in test [2], 21.2 nM.
